Values quoted from earlier work in article PMC7993274 (Clinical and Translational Science, 2020).

Assays:
[1] = patients with rheumatoid arthritis (N = 3,492); cited from earlier work
[2] = levels peaking 2 weeks post‐treatment; cited from earlier work

## CCS(=O)(=O)N1CC(CC#N)(n2cc(-c3ncnc4[nH]ccc34)cn2)C1 [baricitinib]
[1]
  venous thromboembolism incidence rate: 0.5 per 100 patient‐years
[2]
  effect on platelet counts: transiently increase platelet counts
